Three compounds from US10266499B2, “Imidazole derivatives as prodrugs of diclofenac” (priority 2014, dated 2019) can be followed below.

In brackets after ≈: the same amount, converted by molar mass. Where two headings read alike, the source gives them in different places.

For data set [1], the system named is osteoarthritis pain induced by a single injection of MIA. The data set can be described thus: Monosodium iodoacetate (MIA) model of osteoarthritis, joint compression thresholds. The class given is in vivo, Sprague-Dawley rats. The following applies: for mean joint compression thresholds compared to the vehicle group: 0.3 mg intra-articular; for reversal of osteoarthritis pain compared to vehicle treated animals: single intra-articular administration of 0.3 mg. The source says:
Osteoarthritis is the most common form of joint disease. Nearly one third of adults in the United States suffer from osteoarthritis and it is the most common cause of disability in adults in the United States. The monosodium iodoacetate (MIA) model of osteoarthritis described here produces changes in the structure and integrity of the affected cartilage that is very similar to what is seen in human osteoarthritis. Sodium iodoacetate is a metabolic inhibitor that, when injected into the joint space, selectively kills chondrocytes, the cells that form cartilage. Over a period of 2-3 weeks, the loss of cartilage produces a state highly analogous to human osteoarthritis characterized by joint instability, loss of cartilage, and decreased bone quality around the affected joint. These physiological changes are also accompanied by pain in the affected joint.
In this study, osteoarthritis was induced by a single injection of MIA (2 mg) into the synovium of the left knee, which results in increased sensitivity to pressure. For this particular study, the test compounds were given 14 days post-MIA injection to determine if the test compound can reduce the sensitivity.
• Vehicle (0.01% Tween 80 in phosphate buffer) administered intra-articularly at a dose volume of 30 μl on day 0. • Test articles DPX-1-0008, DPX-1-0011, DPX-1-0018, DPX-1-0020, DPX-1-0023, and DPX-1-0024, administered intra-articularly at a dose of 0.3 mg on day 0. • Diclofenac, administered orally at a dose of 10 mg/kg on day 8 to the vehicle group. Methods
A total of 82 male, Sprague-Dawley rats underwent MIA injection with the goal of having 70 animals available for the pharmacology treatment due to 15% failure of developing a pain state. Fourteen days after MIA injection, animals met the inclusion criteria were assigned to one of seven groups (vehicle, test article DPX-1-0008, DPX-1-0011, DPX-1-0018, DPX-1-0020, DPX-1-0023, and DPX-1-0024) and received the assigned treatment. Joint compression thresholds were assessed prior to MIA injection, prior to dosing with control/test articles, and 1, 2, 4, and 7 days post-dosing. Diclofenac served as the positive control for the study. On day 8, animals in the vehicle group received diclofenac (10 mg/kg, PO) and joint compression were assessed prior to, 1 and 2 hours after dosing for all the animals. All animals were euthanized on day 8 following the behavioral assessment.

Data set [2] in a line: pKa-value using a GLpKa meter. The class given is physicochemical. The following applies: 25° C.
Data set [3] in a line: Solubility in 67 mM phosphate buffer pH 7.4 and in hydrochloride solutions at 37° C. The class given is physicochemical. The following applies: for solubility thermodynamic: 37 °C, thermodynamic from solid, read-out: S. On the procedure:
The determination of the solubility of a prodrug at different pH values of interest according to the present invention is carried by adding excess solid prodrug to a container containing a buffer solution with well-defined pH. The mixture is rotated at constant temperature until an equilibrium between solid prodrug and prodrug in solution has established (that is until the prodrug concentration in the supernatant remains constant). At each measurement the pH of the supernatant is controlled and, if needed, adjusted to the desired pH. In a similar manner the solubility of a prodrug in a tissue fluid including the synovial fluid can be determined. The latter procedure comprises a simple way of testing if the solubility at the selected lower pH is indeed at least 100 times higher than the corresponding solubility in the physiological fluid it is injected into. […] For instance, a decrease in pH from pH 7.4 to 2.0 will result in a 1000-fold increase in the solubility of a base with a pKa value of 5, whereas the solubility will increase by a factor of about 9618 for a base with a pKa value of 6. These predicted alterations in pH dependent solubilities can be calculated from the expression: St=S0*(1+10^pKa-pH) where St is the total solubility at a given pH and S0 is the solubility of the neutral form of the prodrug.
A surplus of prodrug was added to either PBS pH 7.4 or H2O. 0.1 M HCl was added to the H2O to decrease pH to around 3-4. The mixtures were rotated at 37° C. and a sample was withdrawn after approximately 24 and 48 hours or later. The withdrawn sample was filtered through a 0.45 μm Millex®-HV (Millipore, Japan) low protein binding filter (the first 0.5 mL discarded) and a known volume of the sample was diluted. The pH 7.4 samples were diluted with PBS and the acidic samples with mobile phase A (section 2.5). A standard dissolved in PBS was made for the pH 7.4 samples and a standard dissolved in mobile phase A for the acidic samples. The PBS standards used for the standard curves were treated like the samples to avoid false results caused by adsorption. The standard curves were made to cover the concentration interval of the samples after dilution.
From the observed relatively stable concentration of dissolved prodrugs measured in the suspensions after 8-9 day up to 23 days, the solubilities of the prodrugs (Sprodrug) were determined. In this time interval, the rate of appearance of parent drug was determined and an apparent pseudo-zero-order rate constant (k0) was obtained. By assuming that the dissolution rates were much faster than the conversion of the prodrugs to the parent drug, pseudo first-order rate constants (khyd) for cleavage of the prodrugs were calculated according to: […]

Data set [4] can be described thus: Stability in 80% (v/v) human plasma at 37° C. The class given is in vitro ADME. Conditions: 80% plasma. Here is the method:
(§1) The stability of the prodrugs was determined in PBS, 80% human SF, 80% human plasma and 80% rat serum at 37° C. 10, 20 or 50 μL of prodrug solution in MeOH was added to 1.0 mL 80% rat serum, 2.5 mL 80% SF or human plasma or 10.0 mL PBS, respectively to give a final prodrug concentration corresponding to the solubility at pH 7.4 at 37° C. Samples were withdrawn at appropriate intervals depending on the rate of degradation. The samples from the biological medias were added to MeCN (1:2 (v:v)) vortexed and centrifuged (5 min, 10000 RPM) and the supernatant analyzed by HPLC. The 700 μL PBS samples were added to 100 μL PBS and mixed before analysis by HPLC. First a pilot study was performed with n=1 to find the appropriate sampling times and thereafter an experiment with n=3. The stability was determined from the decrease in the area of prodrug.

The nature of data set [5]: Stability in 80% (v/v) human SF at 37° C. The following applies: 80% (v/v) human SF (synovial fluid), 80% SF batch 210513, 37° C. The class given is in vitro ADME. On the procedure:
as §1

Data set [6] in a line: Stability in 80% (v/v) rat serum at 37° C. The class given is in vitro ADME. The following applies: pH 7.4, 80% rat serum. On the procedure: as §1
Data set [7] in a line: Stability in PBS pH 7.4 at 37° C. The class given is physicochemical. The following applies: pH 7.4, PBS pH 7.4, 37° C. On the procedure:
as §1

[8] abbreviates: hydrochloride solution pH 4.35, 37° C., n = 6.

For the compound `O=C(Cc1ccccc1Nc1c(Cl)cccc1Cl)OCCCn1ccnc1` [DPX-1-0018], the “mean joint compression thresholds compared to the vehicle group” value in data set [1] (8 days post-dosing) was “significantly increased”. For the same compound, the “reversal of osteoarthritis pain compared to vehicle treated animals” value in data set [1] is on record as “significantly reversed”.
Turning to `Cc1ncn(CCOC(=O)Cc2ccccc2Nc2c(Cl)cccc2Cl)c1C` [DPX-1-0023], the pKa (commonly the pH at which an ionisable group is half protonated) in data set [2] stood at 7.92. The “S (mM)” value is recorded as 0.0064 ± 0.0005 mM in data set [3] (67 mM phosphate buffer pH 7.4, 37° C., n = 6) and 7.2 ± 0.1 mM in data set [3] (setting [8]). In addition, the solubility thermodynamic in data set [3] (67 mM phosphate buffer, pH 7.4, aqueous buffer, 67 mM phosphate buffer pH 7.4, 37° C., n = 6) is around 2.7 µg/mL (≈ 0.00645 mM); in data set [3] (hydrochloride solution, pH 4.35, aqueous buffer, hydrochloride solution pH 4.35, 37° C., n = 6), 3020 ± 62 µg/mL (≈ 7.22 mM). Besides, the “S (μg/ml)” value in data set [3] (setting [8]) turned out to be 3019 µg/mL. Besides, in data set [3] (pH 4.35 vs pH 7.4), the “decrease of solubility from pH 4.35 to pH 7.4” value is 1118 fold. Moreover, the half-life at 2.7 μg/ml worked out at 5.1 ± 0.5 min in data set [4]; 39.8 ± 2.8 min in data set [5]; 6.1 ± 0.4 min in data set [6]; 0.75 days in data set [7] (read-out: T1/2 (days)); 0.752 ± 0.114 days in data set [7] (read-out: T1/2 (min)). Further, the “mean joint compression thresholds compared to the vehicle group” value in data set [1] (1 day post-dosing) is recorded as “significantly increased”. In addition, the “reversal of osteoarthritis pain compared to vehicle treated animals” value in data set [1] is given as “significantly reversed”.
In the case of `O=C(O)Cc1ccccc1Nc1c(Cl)cccc1Cl` [diclofenac], the “mean joint compression thresholds compared to baseline values on day 8” value in data set [1] (10 mg/kg oral, 1 and 2 hours post-dosing) was “significantly increased”.
